{
  "source": "patent US6613322B2",
  "about": "“Method for treating a subject suffering from conditions associated with an extracellular zinc sphingomyelinase” (The Trustees of Columbia University in the City of New York, priority 1997, dated 2003)",
  "key": {"S-SMase [1]": {"target": "T1, S-SMase (Homo sapiens, UniProt P17405)", "T1 sequence (P17405 47-631)": "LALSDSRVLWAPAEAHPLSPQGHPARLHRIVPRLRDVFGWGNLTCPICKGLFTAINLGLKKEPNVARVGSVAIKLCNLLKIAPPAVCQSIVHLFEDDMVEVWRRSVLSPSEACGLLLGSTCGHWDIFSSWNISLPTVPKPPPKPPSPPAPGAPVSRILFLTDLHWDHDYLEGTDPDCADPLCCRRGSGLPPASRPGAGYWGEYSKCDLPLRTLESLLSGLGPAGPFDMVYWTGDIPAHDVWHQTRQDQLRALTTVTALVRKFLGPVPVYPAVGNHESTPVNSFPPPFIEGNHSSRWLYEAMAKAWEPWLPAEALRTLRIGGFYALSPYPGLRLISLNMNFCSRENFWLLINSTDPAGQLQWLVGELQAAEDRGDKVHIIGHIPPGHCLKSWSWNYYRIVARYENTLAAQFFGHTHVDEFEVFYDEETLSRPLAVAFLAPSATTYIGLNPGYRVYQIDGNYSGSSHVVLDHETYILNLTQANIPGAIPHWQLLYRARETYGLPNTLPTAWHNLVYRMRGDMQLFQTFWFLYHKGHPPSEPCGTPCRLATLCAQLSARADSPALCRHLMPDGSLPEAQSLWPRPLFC", "assay": "Zn2+ activation of S-SMase in presence of zinc-metalloproteinase inhibitors", "assay_type": "biochemical", "procedure": "SMase Assay—As previously described (Schissel et al., 1996), the standard 200-μl assay mixture consisted of up to 40 μl of sample (conditioned media or homogenized cells; see above) and a volume of assay buffer (0.1 M sodium acetate, pH 5.0) to bring the volume to 160 μl. The reaction was initiated by the addition of 40 μl substrate (50 pmol [^3H]sphingomyelin) in 0.25 M sucrose containing 3% Triton X-100 (final concentration of Triton X-100 in the 200-μl assay mix=0.6%). When added, the final concentrations of EDTA and Zn^2+ were 5 mM and 0.1 mm, respectively, unless indicated otherwise. […] The ceramide spots were scraped and directly counted to quantify [^3H]ceramide. Typically, the assay reactions contained approximately 20 μg of cellular homogenate protein and a volume of conditioned media derived from a quantity of cells equivalent to approximately 50 μg of cellular protein.\nOne question was how L- and S-SMase acquire their apparent differences in zinc-dependency. One explanation would be that the secreted form requires a Zn^2+-dependent co-factor. Because many lysosomal enzymes undergo proteolytic activation (Hasilik, 1992), an obvious candidate for a Zn^2+-dependent co-factor would be a zinc-metalloproteinase. The results of five experiments, however, ruled out this possibility. First, Zn^2+-activated S-SMase can be subsequently inactivated by Zn^2+-chelation (see below); reversibility of Zn^2+-induced activation is not consistent with proteolytic activation. […] Third, mammalian zinc-metalloproteinases require Ca^2+ as well as Zn^2+, for activity (Reynolds, 1996), whereas Ca^2+ is not a requirement for the activation of S-SMase (Schissel et al., 1996)."}, "S-SMase [2]": {"target": "T1, S-SMase", "assay": "S-SMase treatment of [3H]SM-LDL and [3H]SM-emulsions at pH 7.4", "assay_type": "biochemical", "set-up": "endogenous in cells; host or cells: primary HUVEC, 24-h serum-free conditioned medium", "procedure": "[^3H]SM-emulsions. [^3H]SM-emulsions with a lipid composition similar to human LDL were prepared as follows: 5.4 mg cholesteryl oleate, 0.48 mg triolein, 1.08 mg free cholesterol, 2.04 mg phosphatidylcholine, 0.96 mg sphingomyelin, and 50 μCi [N-palmitoyl-9,10^−3H]sphingomyelin were all added in chloroform to a sonication vial and the solvent completely evaporated by exposure to a stream of nitrogen, followed by the high vacuum of a lyophilizer. The dried lipids were resuspended in 3 mL of buffer containing 150 mM NaCl, 0.3 mM EDTA pH 7.4 and sonicated under a stream of argon at 40° C. until translucent (approximately 90 min) The sonicated material was then centrifuged twice at 15,000×g to pellet any titanium shed from the sonication probe. SM-rich emulsions were prepared exactly as above except that 1.2 mg of phosphatidylcholine and 1.8 mg of SM were used, and sonication time was increased to 120 min. [^3H]SM-emulsions were enriched with apo CIII based on the method of Ahmad et al. (Ahmad et al., 1986). Briefly, [^3H]SM-emulsions (0.4 mL; 182 nmol SM) were incubated with 200 μg apo CIII (22.5 nmol) for 2 h at 40° C. A portion of the emulsions were re-isolated from free ape CIII using ultrafiltration (Clavey et al., 1995) as follows: the crude emulsion-apo CIII mixture was diluted to 2 mL with buffer containing 150 mM NaCl, 0.3 mM EDTA pH 7.4 and ultra filtered and concentrated to 0.2 mL using a CENTRICON® 30 (molecular weight cut-off=30,000); the concentrated emulsions were then diluted to 2 mL and the process was repeated 5 times. [^3H]SM-emulsions run through the same enrichment and re-isolation protocols in the absence of apo CIII served as the control for the experiments in FIG. 11A.\nS-SMase. The source of S-SMase was serum-free conditioned medium from DG44 CHO cells stably transfected with the human acid SMase cDNA (Schissel et al., 1996; Schuchman et al., 1991). […] Cells were plated in 100-mm dishes and cultured for 48 h in DMEM/FBS/PSG. The cells were then changed to low protein serum-free media for 12 h. washed 3 times with PBS, and finally incubated for 18 h in fresh serum-free media (6 mL per 100-mm dish) The “18-h conditioned medium” was then collected, centrifuged at 1000×g to pellet any cells and, except where indicated, ZnCl2 (final concentration=100 μM) was added to fully activate and stabilize S-SMase; this S-SMase-containing conditioned media was then used fresh to treat LDL and lipid emulsions.\nS-SMase Treatment of LDL and Emulsions. The standard incubation mixture consisted of up to 50 μl of sample (LDL or emulsions). […] The ceramide spots were scraped and directly counted to quantify [^3H]ceramide. In all other samples ceramide was determined as described above."}, "S-SMase [3]": {"target": "T2, S-SMase (Mus musculus, UniProt Q04519)", "T2 construct": "endogenous in cells; host or cells: J774.A1 macrophages, serum-free conditioned medium", "T2 sequence (Q04519 45-627)": "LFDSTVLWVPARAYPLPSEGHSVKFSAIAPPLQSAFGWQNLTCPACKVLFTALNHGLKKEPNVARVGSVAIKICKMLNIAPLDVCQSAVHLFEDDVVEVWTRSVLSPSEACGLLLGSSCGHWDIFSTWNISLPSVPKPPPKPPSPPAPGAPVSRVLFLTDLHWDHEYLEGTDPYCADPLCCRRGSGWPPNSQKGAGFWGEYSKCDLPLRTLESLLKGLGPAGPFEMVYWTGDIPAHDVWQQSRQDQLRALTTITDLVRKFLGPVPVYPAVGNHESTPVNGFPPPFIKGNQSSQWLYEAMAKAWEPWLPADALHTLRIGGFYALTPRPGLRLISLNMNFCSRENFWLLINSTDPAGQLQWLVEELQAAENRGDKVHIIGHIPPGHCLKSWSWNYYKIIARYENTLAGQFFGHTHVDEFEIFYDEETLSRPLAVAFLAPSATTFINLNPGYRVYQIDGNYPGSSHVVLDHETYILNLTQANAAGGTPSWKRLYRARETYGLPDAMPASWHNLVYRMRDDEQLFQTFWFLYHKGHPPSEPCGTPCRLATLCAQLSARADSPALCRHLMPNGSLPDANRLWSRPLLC", "assay": "SMase assay of conditioned medium from J774 macrophages (SM micelles, pH 5.0)", "assay_type": "biochemical", "conditions": "1,10-phenanthroline alone", "procedure": "FIGS. 14A-B. Sequential chelation and addition of Zn^2+ to secreted and intracellular SMase. Serum-free conditioned medium and a cell homogenate from J774 macrophages were prepared as described in “Experimental Procedures”. FIG. 14A, conditioned medium (CM) was assayed for SMase activity using 250 nM [^3H]sphingomyelin in Triton X-100 micelles in the presence of either 5 mM EDTA (first bar) or 0.1 mM ZnCl2 (second bar) for 1 h at 37° C. at pH 5.0. An aliquot of the Zn-activated conditioned medium was then incubated for 18 h in the presence of 10 mM EDTA, 10 mM 1,10-phenanthroline, and 0.6% Triton X-100 at 4° C. (EDTA PHNANTH) and then assayed for SMase activity (third bar). After chelation, a portion of this partially inactivated conditioned medium was then dialyzed against zinc-containing buffer C (150 mM NaCl, 10 mM Tris-HCl, 1 mM ZnCl2, 0.6% Triton X-100, pH 7.4) for 18 h and then assayed for SMase activity (fourth bar). FIG. 14B, an aliquot of cell homogenate (Cell Homgn) was assayed for SMase activity in the presence of assay buffer alone (first bar), 5 mM EDTA (second bar), or 0.1 mM ZnCl2 (third bar). Another aliquot of cell homogenate was incubated for 8 h in the presence of 10 mM EDTA, 10 mm 1,10-phenanthroline, and 0.6% Triton X-100 (EDTA PHNANTH) at 4° C. and then assayed for SMase activity (fourth bar). An aliquot of this chelator-treated cell homogenate was then dialyzed against zinc-containing buffer C for 18 h and then assayed for SMase activity (fifth bar).\n(§1) SMase Assay—As previously described (Schissel et al., 1996), the standard 200-μl assay mixture consisted of up to 40 μl of sample (conditioned media or homogenized cells; see above) and a volume of assay buffer (0.1 M sodium acetate, pH 5.0) to bring the volume to 160 μl. […] The ceramide spots were scraped and directly counted to quantify [^3H]ceramide. Typically, the assay reactions contained approximately 20 μg of cellular homogenate protein and a volume of conditioned media derived from a quantity of cells equivalent to approximately 50 μg of cellular protein."}, "L-SMase": {"target": "T3, L-SMase (Mus musculus, UniProt Q04519)", "T3 construct": "endogenous in cells; host or cells: J774.A1 macrophages, sonicated cell homogenate", "T3 sequence (Q04519 45-627)": "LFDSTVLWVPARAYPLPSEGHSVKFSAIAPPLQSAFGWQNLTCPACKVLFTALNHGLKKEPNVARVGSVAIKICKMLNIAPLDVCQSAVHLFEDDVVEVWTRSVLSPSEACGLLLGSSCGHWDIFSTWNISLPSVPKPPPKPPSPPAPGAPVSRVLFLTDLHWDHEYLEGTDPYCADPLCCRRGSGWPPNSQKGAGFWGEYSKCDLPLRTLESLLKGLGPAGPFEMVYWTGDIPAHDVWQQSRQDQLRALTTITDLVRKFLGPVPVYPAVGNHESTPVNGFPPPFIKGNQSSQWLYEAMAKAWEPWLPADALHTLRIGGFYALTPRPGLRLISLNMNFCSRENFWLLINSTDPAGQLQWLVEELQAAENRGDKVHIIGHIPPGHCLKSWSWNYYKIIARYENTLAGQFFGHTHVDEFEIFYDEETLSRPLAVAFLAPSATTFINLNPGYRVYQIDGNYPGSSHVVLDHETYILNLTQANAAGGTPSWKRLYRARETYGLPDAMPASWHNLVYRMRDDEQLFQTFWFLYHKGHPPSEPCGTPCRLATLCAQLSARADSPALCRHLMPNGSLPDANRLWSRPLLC", "assay": "SMase assay of cell homogenate from J774 macrophages (SM micelles, pH 5.0)", "assay_type": "biochemical", "conditions": "1,10-phenanthroline alone", "procedure": "FIGS. 14A-B. Sequential chelation and addition of Zn^2+ to secreted and intracellular SMase. Serum-free conditioned medium and a cell homogenate from J774 macrophages were prepared as described in “Experimental Procedures”. FIG. 14A, conditioned medium (CM) was assayed for SMase activity using 250 nM [^3H]sphingomyelin in Triton X-100 micelles in the presence of either 5 mM EDTA (first bar) or 0.1 mM ZnCl2 (second bar) for 1 h at 37° C. at pH 5.0. An aliquot of the Zn-activated conditioned medium was then incubated for 18 h in the presence of 10 mM EDTA, 10 mM 1,10-phenanthroline, and 0.6% Triton X-100 at 4° C. (EDTA PHNANTH) and then assayed for SMase activity (third bar). […]\nas §1"}, "[4]": {"test_system": "S-SMase secretion by HUVECs", "assay": "Cytokine regulation of S-SMase secretion by HUVECs (SMase activity in conditioned media)", "assay_type": "cell-based, human", "conditions": "18 h, interferon-β 1000 units/ml, IL-4 10 ng/ml", "experimental": "Conditioned media (FIG. 23A) and cell homogenates (FIG. 23B) from these cells were then assayed for SMase activity in the presence or absence of 0.1 mM ZnCl2, respectively.\nThe cells were then washed 3 times with PBS and incubated for 24 h in 1 ml fresh serum-free media containing 0.2%6 BSA. This 24-h conditioned medium was collected for SMase assays.\nHarvesting of Cells and Conditioned Media—Following the incubations described above and in the figure legends, cells were placed on ice and the serum-free conditioned media was removed. The cells were washed two times with ice-cold 0.25 M sucrose and scraped into 0.3 ml and 3.0 ml of this sucrose solution per 35-mm and 100-mm dishes, respectively. Unless indicated otherwise, the scraped cells were disrupted by sonication on ice using three 5-second bursts (Branson 450 Sonifier), and the cellular homogenates were assayed for total protein by the method of Lowry et al. (22) and for SMase activity as described below. The conditioned media were spun at 800×g for 5 min to pellet any contaminating cells and concentrated six-fold using a Centriprep 30 (Amicon; Beverly, Mass.) concentrator (molecular weight cut off=30,000).\nTypically, our assay reactions contained approximately 20 μg of cellular homogenate protein and a volume of conditioned media derived from a quantity of cells equivalent to approximately 50 μg of cellular protein."}},
  "data": [
    {"molecule": "HO—NH—CO—CH2—CH(CH2CH(CH3)2)—C)-Nal-Ala-NH—CH2—CH2—NH2", "values": [
      {"measurement": "effect on ability of Zn2+ to activate S-SMase", "setting": "S-SMase [1]", "result": "did not affect"}
    ]},
    {"molecule": "TIMP-1: tissue inhibitor of metalloproteinase-1, inhibitor of zinc-metalloproteinases", "values": [
      {"measurement": "effect on ability of Zn2+ to activate S-SMase", "setting": "S-SMase [1]", "result": "did not affect"}
    ]},
    {"molecule": "apo CIII: human native apolipoprotein CIII", "values": [
      {"measurement": "S-SMase hydrolysis of [3H]SM-emulsions versus control emulsions", "setting": "S-SMase [2]; emulsion-bound + free apo CIII", "result": "two-fold greater"},
      {"measurement": "S-SMase hydrolysis of [3H]SM-emulsions versus control emulsions", "setting": "S-SMase [2]; emulsion-bound apo CIII only", "result": "approximately ten-fold more"}
    ]},
    {"molecule": "c1cnc2c(c1)ccc1cccnc12", "note": "[1,10-phenanthroline]", "values": [
      {"measurement": "inhibition of S-SMase", "setting": "S-SMase [3]", "result": "does not inhibit"},
      {"measurement": "inhibition of L-SMase", "setting": "L-SMase", "result": "does not inhibit"}
    ]},
    {"molecule": "IL-4: human recombinant interleukin-4", "values": [
      {"measurement": "accumulation of S-SMase in conditioned media (qualitative)", "setting": "[4]", "result": "no effect"}
    ]},
    {"molecule": "HS—CH2—R—CH(CH2—CH(CH3)2)—C)-Phe-Ala-NH2", "values": [
      {"measurement": "effect on ability of Zn2+ to activate S-SMase", "setting": "S-SMase [1]", "result": "did not affect"}
    ]},
    {"molecule": "lysophosphatidylcholine", "values": [
      {"measurement": "stimulation of S-SMase hydrolysis of [3H]SM-LDL", "setting": "S-SMase [2]; exogenously added", "result": "2-3 fold"}
    ]},
    {"molecule": "sPLA2: human recombinant nonpancreatic soluble PLA2 (protein, UniProt P14555 21-144, looked up) Phospholipase A2, membrane …: NLVNFHRMIKLTTGKEAALSYGFYGCHCGVGGRGSPKDATDRCCVTHDCCYKRLEKRGCGTKFLSYKFSNSGSRITCAKQDSCRSQLCECDKAAATCFARNKTTYNKKYQYYSNKHCRGSTPRC", "values": [
      {"measurement": "S-SMase hydrolysis of [3H]SM-LDL after treating the LDL with sPLA2", "setting": "S-SMase [2]; LDL pretreated 14 h at 37° C.", "result": "markedly enhanced"}
    ]}
  ]
}
